This test concerns MOLM-13 cells. Nature of the test: MOLM-13 Cell Proliferation Assay (indicator of DHODH inhibition). Format: cell-based. To be noted: Homo sapiens, 72 Hours of culture, CellTiter-Glo, no uridine. The method, then:
The following assay was conducted to measure proliferation of MOLM-13 cells in the presence of each compound studied. This assay was included as an indicator of DHODH inhibition, as growth of MOLM-13 cells is known to depend on synthesis of pyrimidines using the de novo pathway, which can be blocked by inhibition of DHODH. • 1. MOLM-13 cells were cultured in RPMI 1640 medium+10% Fetal Bovine Serum (FBS). Only low passage cells (<20) were used for the compound tests • 2. On day 1, Log-phase growing Molm-13 Cells were counted and diluted to 10^5 cells/mL in RPMI 1640 medium+10% FBS • 3. 100 μL of diluted MOLM-13 cells in 96 well white plates were seeded, for a final density of 10^4 cells/well. • 4. 0.5 μL of pre-diluted 200× compounds or DMSO control was added to each well. The final DMSO concentration was 0.5%. • 5. After 72 Hours of culture at 37° C., 5% CO2, the plates were taken out and cooled to RT, then 50 μL CellTiter-Glo® (Promega) was added, and the composition was mixed at RT for 10 minutes. • 6. The plates were then read by ViewLux (Speed-fast, Gain-High, Bining-1X, 5 seconds).
(In general: Cellular ATP, detected with luciferase, serves as a proxy for viable cell number.)

pIC50: −log10 of the molar value.

Data on 21 compounds can be found in patent publication US20250186437A1, “CARBOLINE COMPOUNDS AND USE THEREOF” (PTC Therapeutics, Inc., priority 2021, published 2025).

Consider `Cc1ccc(C2c3[nH]c4ccc(Cl)cc4c3CCN2c2nc(C)cc(C)n2)cc1` (stereo not drawn) [Compound 286, 6-chloro-2-(4,6-dimethylpyrimidin-2-yl)-1-(4-methylphenyl)-2,3,4,9-tetrahydro-1H-pyrido[3,4-b]indole], for which the pIC50 was 8.39. Under `Cc1ccc([C@H]2c3[nH]c4ccc(Cl)cc4c3CCN2c2nc(C#N)cc(C(F)(F)F)n2)cc1` [Compound 425, 2-[(1S)-6-chloro-1-(4-methylphenyl)-1,3,4,9-tetrahydro-2H-pyrido[3,4-b]indol-2-yl]-6-(trifluoromethyl)pyrimidine-4-carbonitrile] stands 8.92. Turning to `Cc1nc(C)nc(N2CCc3c([nH]c4c(N)cc(Cl)cc34)C2c2ccc(N3CCOCC3)nc2)n1` (stereo not drawn) [Compound 321, 6-chloro-2-(4,6-dimethyl-1,3,5-triazin-2-yl)-1-[6-(morpholin-4-yl)pyridin-3-yl]-2,3,4,9-tetrahydro-1H-pyrido[3,4-b]indol-8-amine], the pIC50 was 8.15. Under `N#Cc1ccc(C2c3[nH]c4cc(F)c(Cl)cc4c3CCN2c2ncc(F)cn2)cc1` (stereo not drawn) [Compound 32, 4-[6-chloro-7-fluoro-2-(5-fluoropyrimidin-2-yl)-2,3,4,9-tetrahydro-1H-pyrido[3,4-b]indol-1-yl]benzonitrile] stands 7.31; under `Cc1cccc(C2c3[nH]c4ccc(Cl)cc4c3CCN2c2nccc(C(F)(F)F)n2)c1F` (stereo not drawn) [Compound 259, 6-chloro-1-(2-fluoro-3-methylphenyl)-2-[4-(trifluoromethyl)pyrimidin-2-yl]-2,3,4,9-tetrahydro-1H-pyrido[3,4-b]indole], 9.00.

The compound `Cc1ccc([C@H]2c3[nH]c4ccc(Cl)cc4c3CCN2c2nc(N3CCN(C)CC3)nc(C(F)(F)F)n2)c(F)c1F` [Compound 477, (1S)-6-chloro-1-(2,3-difluoro-4-methylphenyl)-2-[4-(4-methylpiperazin-1-yl)-6-(trifluoromethyl)-1,3,5-triazin-2-yl]-2,3,4,9-tetrahydro-1H-pyrido[3,4-b]indole] gave a pIC50 of 8.96. Under `N#Cc1ccnc(N2CCc3c([nH]c4cc(F)c(Cl)cc34)C2c2ccc(Cl)cc2)n1` (stereo not drawn) [Compound 40, 2-[6-chloro-1-(4-chlorophenyl)-7-fluoro-1,3,4,9-tetrahydro-2H-pyrido[3,4-b]indol-2-yl]pyrimidine-4-carbonitrile] stands 7.65; under `FC(F)(F)c1cnnc(N2CCc3c([nH]c4ccc(Cl)cc34)C2c2cnc(N3CCOCC3)nc2)n1` (stereo not drawn) [Compound 383, 6-chloro-1-[2-(morpholin-4-yl)pyrimidin-5-yl]-2-[5-(trifluoromethyl)-1,2,4-triazin-3-yl]-2,3,4,9-tetrahydro-1H-pyrido[3,4-b]indole], 8.80. For `Cc1cc(C(F)(F)F)nc(N2CCc3c([nH]c4ccc(Cl)cc34)[C@H]2c2ccc(C)c(F)c2F)n1` [Compound 204, (1R)-6-chloro-1-(2,3-difluoro-4-methylphenyl)-2-[4-methyl-6-(trifluoromethyl)pyrimidin-2-yl]-2,3,4,9-tetrahydro-1H-pyrido[3,4-b]indole], the pIC50 is 7.40. `Cc1ccc([C@H]2c3[nH]c4ccc(Cl)cc4c3CCN2c2ncc(Br)cn2)c(F)c1F` [Compound 463, (1S)-2-(5-bromopyrimidin-2-yl)-6-chloro-1-(2,3-difluoro-4-methylphenyl)-2,3,4,9-tetrahydro-1H-pyrido[3,4-b]indole]: the pIC50 is 8.96.

`Fc1c(Cl)ccc2[nH]c3c(c12)CCN(c1nccc(C(F)(F)F)n1)C3c1cnc(-n2cncn2)nc1` (stereo not drawn) [Compound 230, 6-chloro-5-fluoro-1-[2-(1H-1,2,4-triazol-1-yl)pyrimidin-5-yl]-2-[4-(trifluoromethyl)pyrimidin-2-yl]-2,3,4,9-tetrahydro-1H-pyrido[3,4-b]indole]: the pIC50 was 8.08. In turn, `Fc1ncccc1C1c2[nH]c3ccc(Cl)c(F)c3c2CCN1c1nccc(C(F)(F)F)n1` (stereo not drawn) [Compound 226, 6-chloro-5-fluoro-1-(2-fluoropyridin-3-yl)-2-[4-(trifluoromethyl)pyrimidin-2-yl]-2,3,4,9-tetrahydro-1H-pyrido[3,4-b]indole] gave a negative-log IC50 (pIC50) of 7.60. In the case of `Cc1nc(N2CCc3c([nH]c4cc(F)c(Cl)cc34)C2c2ccc(CCCCO)cc2)nc(C)c1F` (stereo not drawn) [Compound 249, 4-{4-[6-chloro-7-fluoro-2-(5-fluoro-4,6-dimethylpyrimidin-2-yl)-2,3,4,9-tetrahydro-1H-pyrido[3,4-b]indol-1-yl]phenyl}butan-1-ol], the pIC50 is 8.66. The figure for `N#Cc1ccnc(N2CCc3c([nH]c4cc(F)c(Cl)cc34)C2c2ccc(C(F)(F)F)cc2)n1` (stereo not drawn) [Compound 121, 2-{6-chloro-7-fluoro-1-[4-(trifluoromethyl)phenyl]-1,3,4,9-tetrahydro-2H-pyrido[3,4-b]indol-2-yl}pyrimidine-4-carbonitrile] is 7.61. In turn, `Cc1cnc(N2CCc3c([nH]c4ccc(Cl)c(F)c34)C2c2ccc(C)c(F)c2F)nc1` (stereo not drawn) [Compound 137, 6-chloro-1-(2,3-difluoro-4-methylphenyl)-5-fluoro-2-(5-methylpyrimidin-2-yl)-2,3,4,9-tetrahydro-1H-pyrido[3,4-b]indole] showed a pIC50 of 8.62. The figure for `Cc1nc(N2CCc3c([nH]c4ccc(Cl)cc34)C2c2ccc(N3CCOCC3)nc2)nc(C)c1F` (stereo not drawn) [Compound 367, 6-chloro-2-(5-fluoro-4,6-dimethylpyrimidin-2-yl)-1-[6-(morpholin-4-yl)pyridin-3-yl]-2,3,4,9-tetrahydro-1H-pyrido[3,4-b]indole] is 8.33; for `Fc1ccc(C2c3[nH]c4cc(F)c(Cl)cc4c3CCN2c2ncc(C(F)(F)F)cn2)cc1` (stereo not drawn) [Compound 98, 6-chloro-7-fluoro-1-(4-fluorophenyl)-2-[5-(trifluoromethyl)pyrimidin-2-yl]-2,3,4,9-tetrahydro-1H-pyrido[3,4-b]indole] it is 7.38; for `Fc1nc(N2CCOCC2)ccc1C1c2[nH]c3ccc(Cl)cc3c2CCN1c1nccc(C(F)(F)F)n1` (stereo not drawn) [Compound 432, 6-chloro-1-[2-fluoro-6-(morpholin-4-yl)pyridin-3-yl]-2-[4-(trifluoromethyl)pyrimidin-2-yl]-2,3,4,9-tetrahydro-1H-pyrido[3,4-b]indole] it is 8.80.

As for `FC(F)(F)c1ccnc(N2CCc3c([nH]c4ccc(-n5cccc5)cc34)C2c2cnc(N3CCOCC3)nc2)n1` (stereo not drawn) [Compound 314, 1-[2-(morpholin-4-yl)pyrimidin-5-yl]-6-(1H-pyrrol-1-yl)-2-[4-(trifluoromethyl)pyrimidin-2-yl]-2,3,4,9-tetrahydro-1H-pyrido[3,4-b]indole], the pIC50 is 7.65.

With `CC(C)c1ccc(C2c3[nH]c4cc(F)c(Cl)cc4c3CCN2c2nccc(Cl)n2)cc1` (stereo not drawn) [Compound 53, 6-chloro-2-(4-chloropyrimidin-2-yl)-7-fluoro-1-[4-(propan-2-yl)phenyl]-2,3,4,9-tetrahydro-1H-pyrido[3,4-b]indole], the pIC50 was 8.11. The compound `Fc1c(Cl)ccc2[nH]c3c(c12)CCN(c1ncc(Cl)cn1)C3c1ccc(C(F)(F)F)cc1` (stereo not drawn) [Compound 62, 6-chloro-2-(5-chloropyrimidin-2-yl)-5-fluoro-1-[4-(trifluoromethyl)phenyl]-2,3,4,9-tetrahydro-1H-pyrido[3,4-b]indole] gave a pIC50 of 7.61.

What is called pIC50 is the IC50 on a negative log10 scale, so that one unit is a factor of ten. A higher pIC50 goes with a low IC50.
